These results are taken from PMC12951562, “SH2scan: Mapping SH2 Domain-Ligand Binding Selectivity for Inhibitors and Degraders” (Journal of Medicinal Chemistry, 2026).

Like-named read-outs stand apart in the source and are kept apart here. Non-standard residues stand in square brackets, D forms with d. Residues, ends and D or L forms follow the SMILES beside them. *: point of attachment. pY = N[C@@H](Cc1ccc(OP(=O)(O)O)cc1)C(=O)O; Caffeoyl = O=C(/C=C/c1ccc(O)c(O)c1)*

Holding throughout (assay): biochemical
Common to all, as to type: binding

The target in one assay is T1, PLCG1(SH2dom.N-term.) (Homo sapiens, UniProt P19174).
T1 construct: SH2dom.N-term. denotes SH2 domain closest to N-terminus of protein; made in house; host or cells: HEK293 (transient transfection, unpurified extract)
T1 sequence (P19174 550-657 limits assumed): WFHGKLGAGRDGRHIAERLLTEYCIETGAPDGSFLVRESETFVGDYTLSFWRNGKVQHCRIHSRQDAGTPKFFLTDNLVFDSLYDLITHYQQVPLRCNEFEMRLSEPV
To be noted: for remaining activity at 10 µM: read-out: percent of DMSO vehicle control.

In a further assay the target is T2, PIK3R2(SH2dom.C-term.) (Homo sapiens, UniProt O00459).
T2 construct: SH2dom.C-term. denotes SH2 domain closest to C-terminus of protein; made in house; host or cells: HEK293 (transient transfection, unpurified extract)
T2 sequence (O00459 622-716 limits assumed): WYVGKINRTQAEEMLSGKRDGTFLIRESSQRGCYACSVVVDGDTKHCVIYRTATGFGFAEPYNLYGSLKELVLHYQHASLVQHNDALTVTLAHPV
To be noted: for Kd / KD: dose-response; for Kd: read-out: KD; for remaining activity at 10 µM: read-out: percent of DMSO vehicle control.

The target of a further assay is T3, TNS3 (Homo sapiens, UniProt Q68CZ2).
T3 construct: made in house; host or cells: HEK293 (transient transfection), unpurified extract
T3 sequence (Q68CZ2 1-1445): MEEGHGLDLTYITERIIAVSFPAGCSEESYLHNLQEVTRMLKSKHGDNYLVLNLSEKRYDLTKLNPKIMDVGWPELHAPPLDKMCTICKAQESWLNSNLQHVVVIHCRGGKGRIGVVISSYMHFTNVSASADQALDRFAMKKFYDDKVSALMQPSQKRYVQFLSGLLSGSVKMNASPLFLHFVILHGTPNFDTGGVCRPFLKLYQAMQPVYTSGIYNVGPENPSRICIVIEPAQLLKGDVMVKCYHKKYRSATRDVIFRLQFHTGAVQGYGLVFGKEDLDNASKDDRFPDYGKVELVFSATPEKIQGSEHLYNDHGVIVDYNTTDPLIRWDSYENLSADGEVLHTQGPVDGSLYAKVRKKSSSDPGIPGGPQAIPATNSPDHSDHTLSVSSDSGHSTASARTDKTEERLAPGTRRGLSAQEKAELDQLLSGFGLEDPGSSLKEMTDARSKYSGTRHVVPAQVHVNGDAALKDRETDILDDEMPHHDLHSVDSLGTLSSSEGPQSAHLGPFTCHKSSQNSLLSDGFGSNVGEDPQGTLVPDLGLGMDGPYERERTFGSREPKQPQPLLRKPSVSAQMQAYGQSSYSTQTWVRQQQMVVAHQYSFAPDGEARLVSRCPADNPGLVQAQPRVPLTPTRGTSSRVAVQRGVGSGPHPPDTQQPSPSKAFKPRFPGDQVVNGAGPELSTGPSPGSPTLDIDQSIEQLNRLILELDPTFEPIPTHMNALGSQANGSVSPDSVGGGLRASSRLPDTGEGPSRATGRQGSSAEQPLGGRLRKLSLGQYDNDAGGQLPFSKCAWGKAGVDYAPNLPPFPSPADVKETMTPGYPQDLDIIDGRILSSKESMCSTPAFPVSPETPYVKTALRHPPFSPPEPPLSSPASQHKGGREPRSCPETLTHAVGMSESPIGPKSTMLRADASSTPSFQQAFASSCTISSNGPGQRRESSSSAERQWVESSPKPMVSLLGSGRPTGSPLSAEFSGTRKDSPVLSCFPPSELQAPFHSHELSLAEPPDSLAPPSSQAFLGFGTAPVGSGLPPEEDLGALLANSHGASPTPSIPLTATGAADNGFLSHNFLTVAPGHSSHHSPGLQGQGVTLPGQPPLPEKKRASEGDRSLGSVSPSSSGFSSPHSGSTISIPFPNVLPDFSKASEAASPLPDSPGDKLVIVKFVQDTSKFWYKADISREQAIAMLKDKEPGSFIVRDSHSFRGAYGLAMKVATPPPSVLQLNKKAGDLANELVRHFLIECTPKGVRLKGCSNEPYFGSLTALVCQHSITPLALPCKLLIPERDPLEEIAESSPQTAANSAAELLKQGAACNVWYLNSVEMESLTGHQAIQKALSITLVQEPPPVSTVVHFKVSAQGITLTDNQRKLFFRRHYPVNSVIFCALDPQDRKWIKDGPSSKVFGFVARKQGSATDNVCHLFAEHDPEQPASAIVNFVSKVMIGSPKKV
The conditions noted are these: for remaining activity at 10 µM: read-out: percent of DMSO vehicle control.

The target of a further assay is T4, RASA1(SH2dom.N-term.) (Homo sapiens, UniProt P20936).
T4 construct: SH2dom.N-term. denotes SH2 domain closest to N-terminus of protein; made in house; host or cells: HEK293 (transient transfection), unpurified extract
T4 sequence (P20936 181-272 limits assumed): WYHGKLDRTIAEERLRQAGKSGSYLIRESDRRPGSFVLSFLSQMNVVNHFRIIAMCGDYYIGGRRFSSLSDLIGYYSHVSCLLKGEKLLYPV
The conditions noted are these: for remaining activity at 10 µM: read-out: percent of DMSO vehicle control.

Take `C/C(=C\C(=O)N[C@H](C(=O)N1CCC[C@H]1C(=O)N(c1ccccc1)c1ccc(I)cc1)C(C)(C)C)c1ccc(OP(=O)(O)O)cc1` [STAT6-IN-1]: the dissociation constant (Kd) at PLCG1(SH2dom.N-term.) (dose-response, read-out: KD) is 890 ± 720 nM; at PIK3R2(SH2dom.C-term.) it was 1000 ± 78 nM. In addition, the remaining activity at 10 µM came to 0.3 ± 0.1% at PLCG1(SH2dom.N-term.) (primary screen, 10 μM); 0.2 ± 0.1% at PIK3R2(SH2dom.C-term.) (primary screen, 10 μM); 57 ± 10.1% at TNS3 (primary screen, 10 μM); 50.2 ± 0.4% on RASA1(SH2dom.N-term.) (primary screen, 10 μM).

Consider `CC[C@H](C)[C@H](NC(=O)[C@H](CCC(=O)O)NC(=O)[C@H](CCC(=O)O)NC(=O)[C@H](Cc1ccc(OP(=O)(O)O)cc1)NC(=O)/C=C/c1ccc(O)c(O)c1)C(=O)N[C@@H](CCC(=O)O)C(=O)O` [Caffeic acid-pYEEIE] (Caffeoyl-[pY]EEIE-OH), for which the values for the Kd on PLCG1(SH2dom.N-term.), on TNS3 and on RASA1(SH2dom.N-term.) were 180 ± 200 nM, 1000 ± 210 nM and 230 ± 410 nM, respectively. In addition, the remaining activity at 10 µM was determined as 0.3% at PLCG1(SH2dom.N-term.), 0.3 ± 0.9% on PIK3R2(SH2dom.C-term.), 1.8 ± 0.6% on TNS3 and 0.1% on RASA1(SH2dom.N-term.). The KD entry at PIK3R2(SH2dom.C-term.) is given as “No Hit”.

The compound `CC[C@H](C)[C@H](NC(=O)[C@H](CO)NC(=O)[C@H](CC(C)C)NC(=O)[C@H](CCCNC(=N)N)NC(=O)[C@H](CO)NC(=O)[C@H](CS)NC(C)=O)C(=O)N[C@@H](Cc1ccc(OP(=O)(O)O)cc1)C(=O)N[C@@H](CC(=O)O)C(=O)N[C@@H](CC(N)=O)C(=O)N[C@H](C(=O)N1CCC[C@H]1C(=O)NCC(N)=O)C(C)C` [Ac-CSRLSIpYDNVPG-NH2] (Ac-CSRLSI[pY]DNVPG-NH2) showed a Kd at TNS3 of 120 ± 28.9 nM.

As for `CC(=O)N1CC[C@H]2CC[C@@H](C(=O)N[C@@H](CCC(N)=O)C(=O)NC(c3ccccc3)c3ccccc3)N2C(=O)[C@@H](NC(=O)c2cc3cc(C(F)(F)P(=O)(O)O)ccc3[nH]2)C1` [SI-109], the remaining activity at 10 µM at PLCG1(SH2dom.N-term.) was 130%; on PIK3R2(SH2dom.C-term.), 120%; on TNS3, 128%; at RASA1(SH2dom.N-term.) it was 123%.

Consider `O=C(CCl)Nc1cccc(CNC(=O)[C@H](Cc2ccc(OP(=O)(O)O)cc2)NC(=O)Cc2ccc(F)cc2)c1` [MN551], for which the remaining activity at 10 µM on PLCG1(SH2dom.N-term.) (primary screen, 10 μM) stood at 62.8 ± 3.8%; on PIK3R2(SH2dom.C-term.) (primary screen, 10 μM) it was 30.3%; on TNS3 (primary screen, 10 μM), 48.5 ± 7.3%; on RASA1(SH2dom.N-term.) (primary screen, 10 μM), 94.2 ± 3%. The KD entry at PIK3R2(SH2dom.C-term.) is recorded as “No Hit”.

Consider `NC(=O)CC[C@H](NC(=O)[C@@H]1CC[C@@H]2CCN(C(=O)CCCCCC#Cc3cccc4c3CN(C3CCC(=O)NC3=O)C4=O)C[C@H](NC(=O)c3cc4cc(C(F)(F)P(=O)(O)O)ccc4[nH]3)C(=O)N21)C(=O)NC(c1ccccc1)c1ccccc1` (stereo partly shown) [SD-36], for which the remaining activity at 10 µM was 91.3 ± 4.5% at PLCG1(SH2dom.N-term.), 18.5 ± 3.9% at PIK3R2(SH2dom.C-term.), 57.6 ± 6% on TNS3 and 64.7 ± 0.3% at RASA1(SH2dom.N-term.). Moreover, at PIK3R2(SH2dom.C-term.), the KD result was “No Hit”.

As for `CC(=O)N[C@@H](Cc1ccc(CP(=O)(O)O)cc1)C(=O)NC1(C(=O)N[C@@H](CC(N)=O)C(=O)NCCCc2c(O)ccc3ccccc23)CCCCC1` [CGP78850], the remaining activity at 10 µM on PLCG1(SH2dom.N-term.) came to 109 ± 14.6%; on PIK3R2(SH2dom.C-term.), 0.4 ± 0.4%; on TNS3, 9.8 ± 0.1%; at RASA1(SH2dom.N-term.), 47.6 ± 2.5%. For the same compound, the KD entry at PIK3R2(SH2dom.C-term.) was “No Hit”. For the same compound, at TNS3, the Kd was 620 nM.

For `CC[C@H](C)[C@H](NC(=O)[C@H](CCC(=O)O)NC(=O)[C@H](CCC(=O)O)NC(=O)[C@H](Cc1ccc(OP(=O)(O)O)cc1)NC(C)=O)C(=O)N[C@@H](CCC(=O)O)C(N)=O` [Ac-pYEEIE-NH2] (Ac-[pY]EEIE-NH2), the “percent of DMSO vehicle control” value on PLCG1(SH2dom.N-term.) (primary screen, 10 μM) was determined as 42.1%; at PIK3R2(SH2dom.C-term.) (primary screen, 10 μM), 49.5±7.1%; on TNS3 (primary screen, 10 μM), 83.2±4.0%; on RASA1(SH2dom.N-term.) (primary screen, 10 μM), 121.2%.

Regarding `O=C(COc1ccc2cc(C(=O)Nc3ccccc3)ccc2c1)NCc1ccc(OP(=O)(O)O)c(OP(=O)(O)O)c1` [Stafib-1], the remaining activity at 10 µM turned out to be 82.6 ± 20.2% at PLCG1(SH2dom.N-term.) (primary screen, 10 μM); 84.2 ± 34.7% at PIK3R2(SH2dom.C-term.) (primary screen, 10 μM); 77.8 ± 9% on TNS3 (primary screen, 10 μM); 71.3 ± 8.8% at RASA1(SH2dom.N-term.) (primary screen, 10 μM).

Turning to `CC(C)(C)[C@H](NC(=O)/C=C/c1ccc(OP(=O)(O)O)cc1)C(=O)N1CCC[C@H]1C(=O)N(c1ccccc1)c1ccc(I)cc1` [STAT6-IN-3], the Kd turned out to be 3700 ± 330 nM on PLCG1(SH2dom.N-term.) (dose-response, read-out: KD) and 490 ± 80 nM on PIK3R2(SH2dom.C-term.). For the same compound, the remaining activity at 10 µM was 32.7 ± 14.4% on PLCG1(SH2dom.N-term.) (primary screen, 10 μM); 6.1 ± 1.6% on PIK3R2(SH2dom.C-term.) (primary screen, 10 μM); 55.6 ± 12.1% on TNS3 (primary screen, 10 μM); 81.7 ± 8.5% on RASA1(SH2dom.N-term.) (primary screen, 10 μM).

A word on the Kd: it is the constant that tells how readily two partners part at equilibrium.
